According to patent US20080207560A1, “Composition For External Use” (priority 2005, published 2008):

Assay: Solubility in phosphate buffer (statement)
Type: physicochemical

- solubility in phosphate buffer: sparingly soluble
SMILES: CC1=C(/C=C/C(C)=C/C=C/C(C)=C/C(=O)Oc2cc(C)c3c(c2)CC[C@@](C)(CCC[C@H](C)CCC[C@H](C)CCCC(C)C)O3)C(C)(C)CCC1 [d-δ-tocopheryl retinoate]
